For data set [1], the system named is zebrafish embryos, gene expression at 48 hpf. Put plainly: Targeted transcriptomics (TempO-Seq S1500+ zebrafish panel), differential expression. The format is in vivo, Danio rerio. The note with it: 20 μM, result in words. The protocol:
Targeted transcriptomics were performed using the Biospyder™ TempO-Seq™ 96-well plate platform. This platform used detector oligos for a gene set of 3112 probes selected through data driven approaches and expert curation ([Balik-Meisner et al., 2019]). The targeted transcriptomics approach was selected to maximize the number of chemicals that could be included in the analysis while managing cost and data analysis requirements. Targeted transcriptomics were limited to 96 samples, three chemicals without morphological effects were excluded from the analysis to ensure n = 4 per chemical and n = 6 controls, excluded chemicals are indicated in SI-T3.
A single exposure concentration of 20 μM was chosen as the maximum possible concentration to elicit a biological response that also ensured enough viable animals for RNA collection for every chemical. The same concentration per chemical was chosen as opposed to a phenotypically anchored concentration due to variability in 48 hpf survival across chemicals at the same 120 hpf percent effect and to allow for a direct comparison of chemical potency and transcriptomic response. 48 hpf was chosen to ensure the measurement of transcriptomic responses prior to the emergence of observable phenotypic effects. This timepoint has been used extensively and enhanced the ability to compare our results across datasets. Exposure was conducted over two days, chemicals were split into day groups by numerical order of randomly generated internal labels, 11 chemicals and control each day, n = 48 embryos across six vials per treatment. Exposure was conducted as previously described in section 2.3. At 48 hpf embryos were collected for RNA extraction. Embryos from two exposure vials were kept for morphological effect assessments which were as expected based on screening results. From the remaining wells, six phenotypically normal embryos were collected and pooled in their vial groups into 1.5 mL Eppendorf tubes, placed on ice (~30 sec), excess medium was removed, placed back on ice (~30 sec), and 200 μL RNA shield was added. […] of n = 6 pooled embryos were collected from each treatment.
RNA was extracted from exposure groups on day one and day two. 100 μL of lysis buffer was added to each tube containing pooled embryo samples and 200 μL of RNA shield, the full contents of the tube were then transferred to the homogenization plate (2 mL deep 96-well plate pre-filled with 400 μL 1 mm zirconium beads and 500 μL of lysis buffer). The plate was homogenized for 1.5 min using the Mini-BeadBeater 96 (BioSpec Products, Bartlesville, OK, United States) and centrifuged for five min at 3000 rcf. 550 μL of the supernatant was distributed over two plates, each pre-filled with 275 μL of ethanol. RNA extraction was performed using the KingFisher Apex System (ThermoFisher Scientific, Waltham, MA, United States) and Quick-RNA Magbead kit (Zymo Research Corporation, Irvine, CA, Untied States). Briefly, this automated process uses Mag beads to collect RNA from the sample, after a series of washes and treatment with DNase the RNA is eluted in 50 μL of ultra-pure water. RNA quality was assessed using the 4150 TapeStation System (Agilent, Santa Clara, CA, United States). All samples used had RNA integrity number (RIN) scores >9.8. RNA concentration was determined using Quant-iT RNA Reagent and assay kit and Varioskan ALF multi-mode plate reader (ThermoFisher Scientific, Waltham, MA, United States) in duplicate, samples with high variability (coefficient of variance (CV) > 10) between reads were repeated in triplicate. The average of the quantification reads was used for RNA concentration normalization. […] All 94 samples were normalized using ultra-pure water to the lowest concentration sample − 14.9 ng/μL. […]

For data set [2], the system named is early life stage zebrafish (Danio rerio) embryos. Description: Developmental toxicity morphology screen, sealed rotating vial exposure. The data set is classed as in vivo. Also on record: bmd, MO24 / bmd, MORT / bmd, ANY_ / bmd, AXIS / bmd, CRAN / bmd, EDEM / bmd, LTRK / bmd, MUSC / bmdL, ANY_ / bmdU, ANY_ / bmdL, AXIS / bmdU, AXIS / bmdL, CRAN / bmdU, CRAN / bmdL, EDEM / bmdU, EDEM / bmdL, LTRK / bmdU, LTRK / bmdL, MO24 / bmdU, MO24 / bmdL, MORT / bmdU, MORT: unit not given here. The protocol: (§1) When embryos were 6 hpf they were bleached in groups of 1000 or less to limit bacterial growth in sealed vials. Embryos were placed in a strainer for transfer between solutions in 500 mL containers. […] Pools of eight embryos were placed into 2 mL clear glass screw cap exposure vials with polyvinyl-faced pulp liner (Avantar Radnor, PA, United States) using a glass Pasteur pipette. Excess EM was removed, and 2 mL of fresh EM was immediately added. A total of 10 uL of 200x working stock (in DMSO) was added to each vial, then immediately capped and inverted three times to mix. […] Vials were loaded into a custom 3D printed vial holder for slow end-over-end rotation in a dark 28 °C incubator overnight. […] At 24 hpf, embryos were removed from exposure vials and singulated into 96-well plates loaded with 100 μL chemical-free EM. Each exposure vial group was maintained in plate columns. After loading into 96-well plates, embryos were assessed for 24-hour mortality. For the remainder of the exposure, plates were kept stationary at 28 °C in the dark, until 120 hpf when morphology screening and the larval photo motor response (LPR) assay were conducted, section 2.3.2 and section 2.3.3, respectively.
Each treatment group was replicated over four vials, resulting in 32 embryos per treatment, split over two replicate 96-well plates per chemical. […] All reported concentrations were nominal water concentrations and are included in SI-T4.
At 24 hpf embryos were assessed for mortality (MO24). At 120 hpf embryos were assessed for abnormality in […] morphological endpoints: mortality (MORT), edemas (EDEM), bent axis (AXIS), touch response (TCHR), craniofacial (CRAN), muscular/cardiovascular (MUSC), lower trunk (LRTK), brain (BRAN), skin (SKIN), and notochord malformations (NC). Morphological assessments were made by a team of three to four individuals. The team was blinded to the identity, plate layout, and concentrations of the chemicals, thereby minimizing bias in morphological screening assessment. To ensure the assessments were consistent, concentration–response reproducibility of a parathion ethyl quality control plate was performed along with each experimental exposure set up. Details of all measured endpoints can be found at Developmental toxicity zebrafish phenotype atlas. […] Each endpoint was scored as a binary presence/absence and scores were compiled into an “Any effect” endpoint, the presence of abnormality in any individual endpoint.
The Any effect percent was used to calculate the BMC50, 50 % change relative to the background for each endpoint and chemical. All values were reported as the nominal exposure concentration.

The subject of data set [3] is zebrafish larvae, 120 hpf. Description: Larval photomotor response (LPR) assay after vial exposure. The settings on record: for fold_change: LPR. The format is in vivo, Danio rerio. The protocol:
as §1
Each treatment group was replicated over four vials, resulting in 32 embryos per treatment, split over two replicate 96-well plates per chemical. […] Vial groups of plated larvae were tracked to assess the impact of the vial on the results. All reported concentrations were nominal water concentrations and are included in SI-T4.
The LPR assay was conducted at 120 hpf. […] Larval movement was tracked throughout minutes 6–24. Animals dead or morphologically abnormal were excluded from the analysis, and if more than 30 % of the wells in a treatment group were excluded, the treatment was removed.
Movement values were binned into 6s intervals, log normalized and used to calculate area under the curve (AUC). AUC values from the first cycle after calibration were used to calculate the LEL for each period (light and dark).

The text below walks through data of paper PMC12560828, “Chemical structure drives developmental toxicity of alkyl-substituted naphthalenes in zebrafish” (Environment international, 2025).

For `Cc1ccc(C)c2c(C)cccc12` [1,4,5-trimethylnaphthalene], in data set [1], the nt5dc2 expression result is listed as “decreased expression”. Further, the “BMC50 MO24 (mortality at 24 hpf)” value in data set [2] (Fig. 2, nominal concentration) was 27.7 µM. Besides, in data set [2] (Fig. 2, nominal concentration), the “BMC50 MORT (mortality at 120 hpf)” value was 23.5 µM. Besides, in data set [2] (Fig. 2 heatmap, nominal concentration, exposure 6-24 hpf in vials, summary of all endpoints), the “BMC50 Any effect” value came out at 19.7 µM. Also, the “any effect BMD50” value in data set [2] (SI-T5) came to 19.74 µM. For the same molecule, the “bmd, MO24” value in data set [2] (benchmark dose, endpoint MO24) worked out at 27.7283. Besides, in data set [2] (benchmark dose, endpoint MORT), the “bmd, MORT” value turned out to be 23.5002. For the same molecule, the “bmd, ANY_” value in data set [2] (benchmark dose, morphology endpoint ANY_ (any effect)) stood at 19.7402. In addition, in data set [3] (120 hpf, light/dark periods, result in words), the LPR behavioral effect result is on record as “hyperactivity during the light period”. The fold_change is listed as 0.1634 in data set [3] (period dark, round 1, conc 3.125); 0.08749 in data set [3] (period dark, round 1, conc 6.25); -0.2344 in data set [3] (period dark, round 1, conc 12.5); 0.03668 in data set [3] (period dark, round 2, conc 12.8); -0.1932 in data set [3] (period dark, round 2, conc 16); 0.4872 in data set [3] (period dark, round 2, conc 20). For the same molecule, the fold_change is listed as -0.0344 in data set [3] (period light, round 1, conc 3.125); 0.04487 in data set [3] (period light, round 1, conc 6.25); 0.5316 in data set [3] (period light, round 1, conc 12.5); 0.4664 in data set [3] (period light, round 2, conc 12.8); -0.1141 in data set [3] (period light, round 2, conc 16); 1.443 in data set [3] (period light, round 2, conc 20).
